{"source": "paper PMC5524190", "about": "(Biochemistry, 2016)", "key": {"[1]": {"test_system": "BaIMPDHΔL", "assay_type": "biochemical, Bacillus anthracis"}, "[2]": {"target": "BaIMPDHΔL", "assay_type": "biochemical, Bacillus anthracis", "remark": "listed apart in the source"}}, "note": "Read-outs that look alike come from different tables or passages of the source.", "data": [{"smiles": "NC(=O)C1=CN([C@@H]2O[C@H](COP(=O)(O)OP(=O)(O)OC[C@H]3O[C@@H](n4cnc5c(N)ncnc54)[C@H](O)[C@@H]3O)[C@@H](O)[C@H]2O)C=CC1", "note": "[NADH]", "values": [{"measurement": "lower limit of k4 (NADH rebinding)", "setting": "[1]", "result": "> 2e+06", "unit": "M⁻¹ s⁻¹"}, {"measurement": "Ki", "setting": "[1]; read-out: Ki(Q), predicted", "result": 301, "unit": "µM"}, {"measurement": "Ki", "setting": "[1]; read-out: Ki(Q,B), predicted", "result": 87.2, "unit": "µM"}, {"measurement": "Ki", "setting": "[2]; read-out: Ki(Q), observed ± std.err.", "result": "620 ± 360", "unit": "µM"}, {"measurement": "Ki", "setting": "[2]; read-out: Ki(Q,B), observed ± std.err.", "result": "97 ± 9", "unit": "µM"}]}, {"smiles": "NC(=O)c1ccc[n+]([C@@H]2O[C@H](COP(=O)([O-])OP(=O)(O)OC[C@H]3O[C@@H](n4cnc5c(N)ncnc54)[C@H](O)[C@@H]3O)[C@@H](O)[C@H]2O)c1", "note": "[NAD^+]", "values": [{"measurement": "k2", "setting": "[1]", "result": 31800, "unit": "M⁻¹ s⁻¹"}, {"measurement": "k−2", "setting": "[1]", "result": 10.9, "unit": "s⁻¹"}, {"measurement": "k−7", "setting": "[1]", "result": 566000, "unit": "s⁻¹"}, {"measurement": "lower limit of k−7 (substrate inhibition by NAD+)", "setting": "[1]", "result": "> 4000", "unit": "M⁻¹ s⁻¹"}, {"measurement": "Ki", "setting": "[1]; read-out: Ki(B), predicted", "result": 6610, "unit": "µM"}, {"measurement": "Km", "setting": "[1]; read-out: Km(B), predicted", "result": 415, "unit": "µM"}, {"measurement": "Kd", "setting": "[1]; read-out: dissociation equilibrium constant k−7/k7 (substrate inhibition by NAD+)", "result": "~5500", "unit": "µM"}, {"measurement": "Ki", "setting": "[2]; read-out: Ki(B), observed ± std.err.", "result": "7400 ± 400", "unit": "µM"}, {"measurement": "Km", "setting": "[2]; read-out: Km(B), observed ± std.err.", "result": "460 ± 20", "unit": "µM"}]}]}
